In patent US5798359A, “Piperazino derivatives as neurokinin antagonists” (Schering Corporation, priority 1995, dated 1998):

Key:
[1] = target: T1, human neurokinin 2 (NK2) receptor (Homo sapiens, UniProt P21452); experiment: Neurokinin NK2 receptor binding assay ([3H]-Neurokinin A, CHO cell membranes); settings: for inhibition at 1 µM: 1 μM concentration
T1 construct: expressed in transfected cells; host or cells: Chinese hamster ovary (CHO) cells, G418 medium; membranes
T1 sequence (P21452 1-398): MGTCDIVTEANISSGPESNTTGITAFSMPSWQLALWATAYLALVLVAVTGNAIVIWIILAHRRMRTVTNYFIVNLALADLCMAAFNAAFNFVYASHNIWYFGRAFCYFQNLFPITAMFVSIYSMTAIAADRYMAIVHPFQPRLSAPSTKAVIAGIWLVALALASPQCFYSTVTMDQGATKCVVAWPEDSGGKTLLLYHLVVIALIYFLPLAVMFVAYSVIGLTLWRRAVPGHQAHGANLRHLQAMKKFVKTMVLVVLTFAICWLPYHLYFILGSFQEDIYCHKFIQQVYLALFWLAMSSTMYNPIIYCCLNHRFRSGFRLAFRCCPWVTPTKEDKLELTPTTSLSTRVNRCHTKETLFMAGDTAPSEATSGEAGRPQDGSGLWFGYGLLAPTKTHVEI
Experimental: (§1) Chinese Hamster ovary (CHO) cells transfected with the coding regions for the human neurokinin 1 (NK1) of the human neurokinin 2 (NK2) receptors are grown in Dulbecco's minimal essential medium supplemented with 10% fetal calf serum, 0.1 mM non-essential amino acids, 2 mM glutamine, 100 units/ml of penicillin and streptomycin, and 0.8 mg of G418/ml at 37° C. in a humidified atmosphere containing 5% CO2.
(§2) Cells are detached from T-175 flasks with a sterile solution containing 5 mM EDTA in phosphate buffered saline. Cells are harvested by centrifugation and washed in RPMI media at […] for 5 minutes. The pellet is resuspended in Tris-HCl (pH7.4) containing 1 uM phsphoramidon and 4 ug/ml of chymostatin at a cell density of 30×10^6 cells/ml. The suspension is then homogenized in a Brinkman Polytron (setting 5) for 30-45 seconds. The homogenate is centrifuged at 800×g for 5 min at […] to collect unbroken cells and nuclei. The supernatant is centrifuged in a Sorvall RC5C at 19,000 rpm ([…]) for 30 min at 4° C. The pellet is resuspended, an aliquot is removed for a protein determination (BCA) and washed again. The resulting pellet is stored at -80° C.
(§3) Binding is initiated by the addition of 100 μl of membrane (10-20 μg) containing the human NK-1 or NK-2 receptor in a final volume of 200 μl. After 40 minutes at room temperature, the reaction is stopped by rapid filtration onto Whatman GF/C filters which have been presoaked in 0.3% polyethylenimine. Filters are washed 2 times with 3 ml of 50 mM Tris-HCl (pH7.4). Filters are added to 6 mls of Ready-Safe liquid scintillation cocktail and quantified by liquid scintillation spectrometry in a LKB 1219 RackBeta counter. Non-specific binding is determined by the addition of either 1 μM of CP-99994 (NK1) or 1 μM SR-48968 (NK2) (both synthesized by the chemistry department of Schering-Plough Research Institute).

[2] = target: T2, human neurokinin 1 (NK1) receptor (Homo sapiens, UniProt P25103); experiment: Neurokinin NK1 receptor binding assay ([3H]-Substance P, CHO cell membranes); settings: for Ki: [3H]-Substance P 0.8 nM, Cheng and Prusoff
T2 construct: expressed in transfected cells; host or cells: Chinese hamster ovary (CHO) cells, G418 medium; membranes
T2 sequence (P25103 whole entry): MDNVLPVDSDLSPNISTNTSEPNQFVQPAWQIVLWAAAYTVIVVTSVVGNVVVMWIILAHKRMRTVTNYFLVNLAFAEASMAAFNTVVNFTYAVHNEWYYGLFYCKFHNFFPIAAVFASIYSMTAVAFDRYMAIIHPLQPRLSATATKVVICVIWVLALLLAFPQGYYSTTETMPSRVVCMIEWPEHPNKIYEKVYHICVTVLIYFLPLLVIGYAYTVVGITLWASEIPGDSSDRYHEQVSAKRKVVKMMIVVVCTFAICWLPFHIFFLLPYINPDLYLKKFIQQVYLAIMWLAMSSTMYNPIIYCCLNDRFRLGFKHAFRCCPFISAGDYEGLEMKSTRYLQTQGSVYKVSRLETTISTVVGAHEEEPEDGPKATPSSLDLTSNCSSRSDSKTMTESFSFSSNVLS
Experimental: as §1, §2, §3

| inhibition at 1 µM [1] | Ki [2] | Ki ([1]; [3H]-Neurokinin A 1.0 nM, Cheng and Prusoff) | inhibition at 1 µM ([2]; 1 μM concentration) | SMILES |
| --- | --- | --- | --- | --- |
| 24% | 136 nM |  |  | COC1(C[S+]([O-])c2ccccc2)CCN(CC(=O)N2CCN(Cc3cc(C(F)(F)F)cc(C(F)(F)F)c3)CC2c2ccc(Cl)c(Cl)c2)CC1 (stereo not drawn) |
|  | 30 nM | 175 nM |  | O=C(CNC1CCN(Cc2ccccc2)CC1)N1CCN(Cc2cccc(C(F)(F)F)c2)CC1c1ccc(Cl)c(Cl)c1 (stereo not drawn) |
| 0% |  |  | 48% | Cc1cccc(C)c1N1CCN(CC(=O)N2CCN(Cc3cc(C(F)(F)F)cc(C(F)(F)F)c3)CC2c2ccccc2)CC1 (stereo not drawn) |
